# According to patent publication US20040247525A1, “Brain progenitor cell-based assay, and related methods and compositions” (priority 2003, published 2004):
# Entries after “also recorded” stand apart in the source; their conditions may differ. Like-named read-outs stand apart in the source and are kept apart here.
# Assays:
# 129/SvEv mice = test: Novelty-suppressed feeding test (NSF); assay type: in vivo, mouse
# Method: Haloperidol, an antipsychotic that antagonizes D2 dopamine receptors, was used as a negative control because it is devoid of antidepressant activity in humans. NSF performance was assessed after either 5 or 28 days of oral drug administration.
# [1] = test system: 5-HT1A receptor knockout (KO) mice; test: Novelty-suppressed feeding test (NSF) in 5-HT1A knockout mice; assay type: in vivo, mouse
# Method: The Novelty-suppressed feeding test was carried out during a 5-min period as previously described (Santarelli et al., 2001). Briefly, the testing apparatus consisted of a plastic box, 50×50×20 cm. The floor was covered with approximately 2 cm of wooden bedding. Twenty-four hours prior to behavioral testing, all food was removed from the home cage. At the time of testing, a single pellet of food (regular chow) was placed on a white paper platform positioned in the center of the box. An animal was placed in a corner of the maze and a stopwatch was immediately started. The measure of interest (chewing) was scored when the mouse was sitting on its haunches and biting with the use of forepaws. Immediately after this test, mice were transferred to their home cage and the amount of food consumed in 5 min was measured (home cage food consumption). In knockout experiments, mice were genotyped after behavioral testing to remove the possibility of investigator bias. Mice were always tested during the light period.
# Among the 14 known 5-HT receptor subtypes, the 5-HT1A receptor has been most consistently implicated in the modulation of mood and anxiety-related behaviors (Gross et al., 2000; Sargent et al., 2000). To determine whether this receptor is required to mediate the effects of serotonin- and noradrenaline-enhancing ADs, we compared the effects of these drugs in wild type (WT) mice and in mice lacking the 5-HT1A receptor (5-HT1A receptor knockout (KO) mice). WT and KO mice were treated with fluoxetine, imipramine, desipramine, or vehicle for a period of 28 days before being tested in the NSF paradigm.
# [2] = test system: BrdU-positive cells in the dentate gyrus; test: BrdU labeling of cell proliferation and neurogenesis in the dentate gyrus; assay type: in vivo, mouse; conditions: for BrdU-positive cells surviving 28 days after BrdU injection: wild type mice, chronic treatment, sacrificed 28 days after BrdU; for BrdU-labeled cells in the SGZ (cell proliferation): 8-OH-DPAT chronic (28 days, 1 mg/kg/day mini pumps), WT (+/+) mice, vs sham, 1 mg/kg/day
# BALB/c mice = test: Chronic unpredictable stress paradigm (CUS); assay type: in vivo, mouse; conditions: for state of the coat (fur) in CUS: fluoxetine 10 mg/kg/day i.p. from week 3, end of fifth week; for weight loss induced by stress in CUS / grooming latency in CUS: fluoxetine 10 mg/kg/day i.p.; for weight loss induced by stress in CUS: data not shown; for grooming latency in CUS: sixth week, after sucrose solution
# Method: The stress regimen used is a variant of the chronic mild stress procedures described by Willner et al. (Willner et al., 1992). Mice were subjected to various and repeated unpredictable stressors for a period of five weeks (Griebel et al., 2002). The different stressors used were: alterations of the bedding (repeated sawdust changing, removal of sawdust, damp sawdust, substitution of sawdust with 37° C. water); cage tilting (45°); predator sounds (15 min.); cage shift (mice were positioned in the empty cage of another male); light to dark or dark to light shifts (four light/dark successions of 30 min every 24 hours); reversal of the light/dark cycle. The fluoxetine treatment (10 mg/kg/day, i.p.) started at the beginning of the third week. The state of the coat was assessed at the end of the stress regimen (end of fifth week). The total score resulted from the sum of the score of seven different body parts: head, neck, dorsal coat, ventral coat, tail, forepaws and the hindpaws. A score of 0 was given for a well-groomed coat and 1 for a spoiled coat (see Griebel, 2002). The grooming latency was assessed at the end of the sixth week. This test consisted in squirting 200 μl of a 10% sucrose solution on the mouse's snout. The latency to start grooming was then recorded.
# The CUS protocol consists of the sequential application of a number of stressors, presented in a varied and unpredictable manner during 5 weeks. The continued application of these stressors produces a deterioration in the state of the coat, an impaired grooming response, and weight loss (Griebel et al., 2002; Willner et al., 1992). ADs such as fluoxetine can reverse these stress-induced effects after chronic, but not acute, administration (Griebel et al., 2002; Willner et al., 1992).
# Sham and irradiated mice were subjected to five weeks of CUS, beginning two weeks after the final X-ray dose, and half of the animals in each group were administered fluoxetine (10 mg/kg/day, i.p.) from weeks 3-6. The state of each animal's fur was assessed at the end of the stress period, and assigned a score based on observations from several body regions (see methods). Fluoxetine treatment was continued for one more week, after which we measured the latency to begin grooming following application of a sucrose solution to the head of each animal.
# [3] = mouse, in vivo, po
# Method: Fluoxetine (Eli Lilly, Indianapolis, Ind.), Imipramine (Sigma-Aldrich, St. Louis, Mo.), Desipramine (Sigma-Aldrich, St. Louis, Mo.) and Haloperidol (Sigma-Aldrich, St. Louis, Mo.) were dissolved in tap water at a concentration of 80, 160, 160, and 8 mg/L, respectively. These concentration were established based on the average drinking amount and average weight of the mice used in the study to achieve a final dose of 10 (fluoxetine), 20 (imipramine and desipramine) and 1 (haloperidol) mg/kg/day. […] Vehicle animals received tap water. 8-hydroxy-2-(di-n-propylamino) tetralin (8-OH-DPAT, Sigma-Aldrich, St. Louis, Mo.) was dissolved in sterile saline (0.9% NaCl) at a concentration of 4.5 mg/ml, and delivered through Alzet osmotic mini-pumps (model 2004, Alzet, Cupertino, Calif.) implanted subcutaneously 28 days prior to behavioral testing. The final average dose delivered was 1 mg/kg/day. Sham mice were implanted with mini-pumps containing sterile saline.
# [4] = test system: dentate gyrus (DG) of the rat hippocampus; conditions: Malberg et al., 2000; cited from earlier work
# [5] = test system: BrdU-positive cells in the dentate gyrus of 5-HT1A receptor KO mice; test: BrdU labeling of cell proliferation in the dentate gyrus of 5-HT1A knockout mice; conditions: for BrdU-positive cells surviving 28 days after BrdU injection: 5-HT1A KO mice, chronic treatment, sacrificed 28 days after BrdU; for BrdU-labeled cells in the SGZ (cell proliferation): 8-OH-DPAT chronic (28 days, 1 mg/kg/day mini pumps), vs sham, 1 mg/kg/day
# Method: Knockout and wild-type 129/SvEv age-matched adult male mice (12-20 weeks) derived from heterozygote crossings (Phillips et al., 1999) were used in all experiments that included 5-HT1A knockout mice. […] Mice were housed 4-5 per cage in a 12-h (06:00-18:00) light-dark colony room at 22° C. with freely available food and water.
# To assess the effect of antidepressant or X-irradiation treatments on the number of BrdU-positive cells, mice were administered BrdU (4×75 mg/kg i.p., dissolved in saline, every 2 hr; Roche Diagnostic, Indianapolis, Ind.) and sacrificed 24 hr after the last BrdU injection (FIG. 2A, 3B, 5C-D). To determine cell survival and phenotype after the various antidepressant treatments, fluoxetine, imipramine and vehicle-treated mice were allowed to survive for 28 days after the last BrdU injection (FIG. 2C-D, 3C). After deep anesthesia with a mixture of ketamine/xylazine (100 mg/kg and 7 mg/kg respectively),, mice were transcardially perfused (cold saline for 2 min, followed by 4% cold paraformaldehyde/0.1 M phosphate buffer for 5 min) and brains were collected for immunohistochemistry. All brains were post-fixed overnight in 4% paraformaldehyde at 4° C., then cryoprotected in 30% sucrose and stored at 4° C. Serial sections of the brains were cut (35 μm sections) through the entire hippocampus (plates 41-61; Franklin and Paxinos, 1997) on a cryostat and stored in PBS with 0.1% NaN3. For DAB staining, sections were slide-mounted and boiled in citric acid, pH 6.0, for 5 min, rinsed with PBS, and treated with 0.01% trypsin in Tris/CaC12 for 10 min. Brain sections were incubated for 30 min with 2N HCl and blocked with 5% NGS (Jackson ImmunoResearch, West Grove, Pa.). Sections were then incubated over night at room temperature with anti-mouse BrdU (1:100; Becton-Dickinson). After washing with PBS, sections were incubated for 1 hr with secondary antibody (1:200 biotinylated goat anti-mouse; Sigma-Aldrich, St. Louis, Mo.) followed by amplification with an avidin-biotin complex (Vector Laboratories). The staining was visualized with DAB (Sigma-Aldrich, St. Louis, Mo.). For fluorescent double-labeling, the DNA-denaturation procedure consisted of the following steps: 2 hr incubation in 50% formamide-2×SSC at 65° C., 5 min rinse in 2×SSC, 30 min incubation in 2N HCl at 37° C., and 10 min rinse in 0.1 M boric acid, pH 8.5. Sections were then incubated in TBS-0.1% Triton X-100 (Tx)-5% normal donkey serum (NDS) for 30 min, followed by anti-rat BrdU primary antibody (1:100; Accurate Westbury, N.Y. or Serotec, Oxford, UK) in TBS/NDS/Tx for 24 hrs at 4° C. in combination with either a mouse monoclonal antibody to NeuN (1:500; Chemicon, Temecula, Calif.) or a rabbit polyclonal antibody to GFAP (1:800; DAKO, Carpinteria, Calif.). The fluorescent secondary antibodies used were biotin-conjugated donkey anti-rat (1:200) plus streptavidin Cy2 (1:200), donkey anti-mouse. Cy3 (1:500), or donkey anti-rabbit Cy3 (1:500) (Jackson ImmunoResearch, West Grove, Pa.). Fluorescent images were taken with a Bio-Rad MRC 1000 confocal laser scanning system coupled to a Zeiss Axiovert 100 inverted microscope. For each image acquisition, a Kalman average of five frames was used. For quantification of BrdU/NeuN or BrdU/GFAP double-labeled cells, at least 50 BrdU-positive cells per animal were analyzed using Z-plane sectioning (1 μm steps).
# In this set of experiments, wild type and 5-HT1A receptor KO mice were injected with BrdU following 27 days of treatment with fluoxetine, imipramine, or vehicle. To assess the effect of AD treatment on cell proliferation, one group of mice was sacrificed 24 hours after BrdU injection and sections containing the dentate gyrus were analyzed by immunohistochemistry.
# [6] = 5-day treatment via drinking water, vs vehicle
# [7] = 28 days via drinking water, fluoxetine 10, imipramine 20, desipramine 20, haloperidol 1 mg/kg/day, wild-type mice, vs vehicle
# [8] = 28 days, X-irradiated mice (3 x 5 Gy to hippocampus), vs vehicle
# [9] = 28 days, sham (non-irradiated) mice, vs vehicle
# [10] = 28 days via drinking water, 5-HT1A knockout (−/−) mice, vs vehicle
compound,measurement,setting,value
"CNCCC(Oc1ccc(C(F)(F)F)cc1)c1ccccc1 (stereo not drawn) [fluoxetine, Fluoxetine]",latency to feed in NSF,129/SvEv mice; [6],no effect
same,latency to feed in NSF,129/SvEv mice; [7],significant decreases in the latency to feed
same,latency to feed in NSF,"129/SvEv mice; 28 days via drinking water, fluoxetine 10, imipramine 20, desipramine 20, haloperidol 1 mg/kg/day, wild-type mice, vs vehicle, listed as Fluoxetine",significantly decreased the latency to feed
same,latency to feed in NSF,129/SvEv mice; [8],no such anxiolytic-like effect
same,latency to feed in NSF,129/SvEv mice; [9],significant reduction in the latency to feed
same,latency to feed in NSF,[1]; [10],insensitive
same,latency to feed in NSF,"[1]; 28 days via drinking water, 5-HT1A knockout (−/−) mice, vs vehicle, listed as Fluoxetine",only imipramine and desipramine were effective
same,cell proliferation (BrdU),"[2]; chronic fluoxetine, X-irradiated animals",no effect
same,cell proliferation (BrdU) in the SGZ,"[2]; chronic fluoxetine, non-irradiated mice",increased cell proliferation
same,cell proliferation (BrdU) in the SVZ,"[2]; chronic fluoxetine, subventricular zone",no effect
same,number of BrdU-positive cells in the DG,"[2]; fluoxetine 5 days, sacrificed 24 hours after BrdU, vs vehicle",No significant effect
same,increase in BrdU-labeled cells in the dentate gyrus,"[2]; wild type (+/+) mice, 27 days (4 weeks) treatment, sacrificed 24 hours after BrdU, vs vehicle",two-fold increase; also recorded: effective only in +/+ mice
same,BrdU-positive cells surviving 28 days after BrdU injection,[2]; vs vehicle,had an effect in WT
same,state of the coat (fur) in CUS,BALB/c mice; X-irradiated mice,absent; also recorded: Irradiation prevented the improvement of the state of the coat
same,state of the coat (fur) in CUS,BALB/c mice; sham mice,significantly improved the state of the fur; also recorded: significant differences between the fluoxetine-treated sham group and all the others
same,weight loss induced by stress in CUS,BALB/c mice; X-irradiated mice,irradiation blocked this effect
same,grooming latency in CUS,BALB/c mice; X-irradiated mice,X-irradiation blocked this effect
same,weight loss induced by stress in CUS,BALB/c mice; sham mice,trend to reverse the weight loss
same,grooming latency in CUS,BALB/c mice; sham mice,decreased; also recorded: decrease in the latency to groom
same,time by which steady serum levels had been achieved,[3]; 129/SvEv,≤ 5 days
same,neurogenesis in the dentate gyrus,[4],increase neurogenesis
same,increase in BrdU-labeled cells in the dentate gyrus,"[5]; 5-HT1A KO (−/−) mice, 27 days (4 weeks) treatment, sacrificed 24 hours after BrdU, vs vehicle",no effect; also recorded: effective only in +/+ mice
same,BrdU-positive cells surviving 28 days after BrdU injection,[5]; vs vehicle,not in KO
"CN(C)CCCN1c2ccccc2CCc2ccccc21 [imipramine, Imipramine]",latency to feed in NSF,129/SvEv mice; [6],no effect
same,latency to feed in NSF,129/SvEv mice; [7],significant decreases in the latency to feed; also recorded: significantly decreased the latency to feed
same,latency to feed in NSF,129/SvEv mice; [8],no such anxiolytic-like effect
same,latency to feed in NSF,129/SvEv mice; [9],significant reduction in the latency to feed
same,latency to feed in NSF,[1]; [10],still responsive; also recorded: effective
same,BrdU-positive cells surviving 28 days after BrdU injection,[2]; vs vehicle,effective in both genotypes
same,time by which steady serum levels had been achieved,[3]; 129/SvEv,≤ 5 days
same,BrdU-positive cells surviving 28 days after BrdU injection,[5]; vs vehicle,effective in both genotypes
CCCN(CCC)C1CCc2cccc(O)c2C1 (stereo not drawn) [8-OH-DPAT],latency to feed in NSF,"129/SvEv mice; 28 days, subcutaneous osmotic mini pumps, 1 mg/kg/day, wild type (+/+), vs sham, 1 mg/kg/day",significantly decreased the latency to feed; also recorded: significant decrease in the latency to feed
same,latency to feed in NSF,"[1]; 28 days, subcutaneous osmotic mini pumps, 1 mg/kg/day, 5-HT1A knockout (−/−), vs sham, 1 mg/kg/day",ineffective
same,BrdU-labeled cells in the SGZ (cell proliferation),[2],caused an increase in cell proliferation
same,BrdU-labeled cells in the SGZ (cell proliferation),[2]; listed as DPAT,DPAT-induced increases in BrdU-labeled cells
same,BrdU-labeled cells in the SGZ (cell proliferation),[5]; 5-HT1A KO (−/−) mice,not observed
same,BrdU-labeled cells in the SGZ (cell proliferation),"[5]; 5-HT1A KO (−/−) mice, listed as DPAT",not −/− mice
"O=C(CCCN1CCC(O)(c2ccc(Cl)cc2)CC1)c1ccc(F)cc1 [haloperidol, Haloperidol]",latency to feed in NSF,"129/SvEv mice; 28 days via drinking water, fluoxetine 10, imipramine 20, desipramine 20, haloperidol 1 mg/kg/day, wild-type mice, vs vehicle, listed as Haloperidol",ineffective
"CNCCCN1c2ccccc2CCc2ccccc21 [desipramine, Desipramine]",latency to feed in NSF,129/SvEv mice; [7],significant decreases in the latency to feed; also recorded: significantly decreased the latency to feed
same,latency to feed in NSF,[1]; [10],still responsive; also recorded: effective
same,time by which steady serum levels had been achieved,[3]; 129/SvEv,≤ 5 days
NCCC(Oc1ccc(C(F)(F)F)cc1)c1ccccc1 (stereo not drawn) [nor- fluoxetine],time by which steady serum levels had been achieved,[3],≤ 5 days
